Source: patent publication US20250353857A1, “COMPOUND ACTIVE AS INHIBITOR OF COLONY STIMULATION FACTOR-1 RECEPTOR (CSF-1 R)” (priority 2022, published 2025)

Assays:
[1] = tested on: P-MAPK (ERK1/2) in CSF-1 stimulated bone-marrow derived macrophages; test: Effect of CSF1R inhibitors on MAPK signaling in mouse bone-marrow derived macrophages; type: cell-based; details: fold change relative to PLX3397 (IC50 inhibitor/IC50 PLX3397), P-MAPK/total MAPK, 10 ng/mL CSF-1
[2] = target: CSF1R (Homo sapiens (Human), UniProt P07333); test: CSF1R enzymatic inhibitory assay (Invitrogen Z'-LYTE, FRET); type: biochemical; details: Z'-LYTE assay, ATP concentration equal to Km, average of at least 2 titration curves; read-out: CSF1R (IC50);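 note: kinase phosphorylates a tyrosine on a coumarin/fluorescein FRET peptide, a protease cuts peptide left unphosphorylated, inhibition quantified from the donor-to-acceptor emission ratio with excitation at 400 nm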
CSF1R, sequence (P07333 20-972): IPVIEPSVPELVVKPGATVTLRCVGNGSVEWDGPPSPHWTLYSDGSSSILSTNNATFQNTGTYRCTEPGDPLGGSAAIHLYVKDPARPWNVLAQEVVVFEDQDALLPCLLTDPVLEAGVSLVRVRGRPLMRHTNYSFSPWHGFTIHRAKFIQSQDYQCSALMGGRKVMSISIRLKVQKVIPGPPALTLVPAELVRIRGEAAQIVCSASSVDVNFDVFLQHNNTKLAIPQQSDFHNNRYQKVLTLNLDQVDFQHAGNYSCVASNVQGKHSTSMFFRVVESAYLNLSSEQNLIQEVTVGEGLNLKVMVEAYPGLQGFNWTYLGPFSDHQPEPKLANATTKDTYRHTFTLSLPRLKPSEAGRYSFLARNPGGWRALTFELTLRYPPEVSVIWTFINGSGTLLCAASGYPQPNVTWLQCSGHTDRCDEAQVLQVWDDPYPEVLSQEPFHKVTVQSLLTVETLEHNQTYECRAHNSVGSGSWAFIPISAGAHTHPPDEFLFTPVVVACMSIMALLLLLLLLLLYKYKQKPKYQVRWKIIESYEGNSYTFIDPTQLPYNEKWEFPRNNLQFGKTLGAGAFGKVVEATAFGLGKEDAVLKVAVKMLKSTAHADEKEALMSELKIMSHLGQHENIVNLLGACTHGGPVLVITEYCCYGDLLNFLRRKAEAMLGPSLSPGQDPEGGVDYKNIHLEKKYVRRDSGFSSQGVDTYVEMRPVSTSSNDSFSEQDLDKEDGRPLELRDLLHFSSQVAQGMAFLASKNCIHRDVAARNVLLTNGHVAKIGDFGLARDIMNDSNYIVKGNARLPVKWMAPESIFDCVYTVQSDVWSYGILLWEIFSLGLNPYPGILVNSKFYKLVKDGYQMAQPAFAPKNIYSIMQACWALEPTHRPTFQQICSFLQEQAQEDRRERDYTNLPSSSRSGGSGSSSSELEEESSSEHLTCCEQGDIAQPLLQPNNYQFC

Row | SMILES | MAPK (fold) [1] [fold] | IC50 [2] [nM]
1 | CN1CCCC(CN(C)c2ncnc3[nH]c(-c4ccc(CO)cc4)nc23)C1 (stereo not shown) [TIA04-063, N-Methyl-N-(1-methylpiperidin-3-ylmethyl)-8-(4-(hydroxymethyl)phenyl)-9H-purin-6-amine] | >3 | 53 ± 4
2 | CC(C)C1CCCN1c1ncnc2[nH]c(-c3ccc(CO)cc3)nc12 (stereo not shown) [TIA04-065] | >3 | 5.4 ± 2.4
3 | CN(CC1CCCO1)c1ncnc2[nH]c(-c3ccc(CO)cc3)nc12 (stereo not shown) [TIA04-093, N-Methyl-N-(tetrahydrofuran-2-ylmethyl)-8-(4-(hydroxymethyl)phenyl)-9H-purin-6-amine] | >3 | 2.6 ± 0.3
4 | CN(CC1CCCCO1)c1ncnc2[nH]c(-c3ccc(CO)cc3)nc12 (stereo not shown) [TIA04-095, N-Methyl-N-(oxan-2-ylmethyl)-8-(4-(hydroxymethyl)phenyl)-9H-purin-6-amine] | >3 | 1.3 ± 0.2
5 | CN(Cc1ccccc1)c1ncnc2[nH]c(N3CCOCC3)nc12 [TIA04-105, N-Benzyl-N-methyl-8-morpholino-9H-purin-6-amine] | >3 | 16 ± 4
6 | CN(CC1CCCCC1)c1ncnc2[nH]c(-c3ccc(CN4CCOCC4)cc3)nc12 [TIA04-117, N-(Cyclohexylmethyl)-N-methyl-8-(4-(4-morpholinomethyl)phenyl)-9H-purin-6-amine] | 1.2 | 1.2 ± 0.2
7 | CN(CC1CCOCC1)c1ncnc2[nH]c(-c3ccc(CCO)cc3)nc12 [TIA05-014, N-Methyl-N-(oxan-4-ylmethyl)-8-(4-(2-hydroxyethyl)phenyl)-9H-purin-6-amine] | 1.7 | 0.2
8 | CN(CC1CCCCC1)c1ncnc2[nH]c(-c3ccc(CO)cc3)cc12 [TIA05-090, (4-(4-((Cyclohexylmethyl)(methyl)amino)-7H-pyrrolo[2,3-d]pyrimidin-6-yl)phenyl)methanol] | 1.0 | 0.3
